Like-named read-outs stand apart in the source and are kept apart here. One block for each compound: values may come before it.
Assays:
[1] = test system: carbonic anhydrase 9 (CA9); experiment: CA9 immunostaining in HT-29 colorectal xenograft tumours; type: in vivo, nude mouse; settings: 7 days after a single IV treatment; CRLX-101 5 mg/kg, CPT 0.5 mg/kg
[2] = test system: NCI-H417a small-cell lung cancer tumour; type: in vivo; settings: wild type BRCA1 and BRCA2
[3] = test system: Capan-1; experiment: MTS viability assay, CRLX-101 alone and with Olaparib, Capan-1 (schedule 1); type: cell-based; settings: Homo sapiens, 72 hours, Olaparib alone
Experimental: (§1) The optimal seeding density for each cell line (DU145, Capan-1, Hs 766T, PANC-1, NUGC4, HEY, OVCAR3, OAW28 and NCI-H510A) will be determined prior to running the assay. Cells will be seeded in 50 μL media (in triplicate for each condition). Three 96 well flat bottom tissue culture plates will be required per cell line (See appendix I). Cells will be allowed to adhere overnight at 37° C., 5% CO2, 20% O2 before compound is added.
(§2) Day 5: Analysis of Proliferation • Remove plates from the incubator and perform a Cell Titre 96 Aqueous One Solution Cell Proliferation Assay (Promega #G3582) according to the manufacturers protocol. • Record absorbance at 490 nm using colorimetric plate reader.

[4] = test system: Capan-1; experiment: MTS viability assay, CRLX-101 alone and with Olaparib, Capan-1 (schedule 2); type: cell-based; settings: Homo sapiens
Experimental: as §1, §2

[5] = test system: DU145; experiment: MTS viability assay, CRLX-101 alone and with Olaparib, DU145; type: cell-based; settings: Homo sapiens, DU-145, 72 hours, Olaparib alone
Experimental: as §1, §2

[6] = test system: Hs 766T; experiment: MTS viability assay, CRLX-101 alone and with Olaparib, Hs 766T; type: cell-based; settings: Hs766T, 72 hours, Olaparib alone, read-out: IC50 relative
Experimental: as §1, §2

[7] = test system: OVCAR3; experiment: MTS viability assay, CRLX-101 alone and with Olaparib, OVCAR3; type: cell-based; settings: Homo sapiens, OVCAR-3, 72 hours, Olaparib alone
Experimental: as §1, §2

[8] = test system: PANC-1; experiment: MTS viability assay, CRLX-101 alone and with Olaparib, PANC-1; type: cell-based; settings: Homo sapiens, 72 hours, Olaparib alone
Experimental: as §1, §2

[9] = test system: NCI-H510A; experiment: MTS viability assay, CRLX-101 alone and with Olaparib, NCI-H510A; type: cell-based; settings: Homo sapiens, 72 hours, Olaparib alone, read-out: IC50 relative
Experimental: as §1, §2

[10] = test system: NUGC4; experiment: MTS viability assay, CRLX-101 alone and with Olaparib, NUGC4; type: cell-based; settings: Homo sapiens, NUGC-4, 72 hours, Olaparib alone, read-out: IC50 relative
Experimental: as §1, §2

[11] = test system: OAW28; experiment: MTS viability assay, CRLX-101 alone and with Olaparib, OAW28; type: cell-based; settings: Homo sapiens, OAW-28, 72 hours, Olaparib alone, read-out: IC50 relative
Experimental: as §1, §2

[12] = test system: SKOV-3 human ovarian xenograft; settings: CRLX-101 9 mg/kg and/or Paclitaxel 30 mg/kg, QW × 3 IV
Text: Body weight curves are means relative to the initial body weight, with bars indicating standard deviation. Survival is indicated as the percentage of animals remaining on study because mice bearing tumours that reached a predetermined cut off size (1500 mm3) were removed from the experiment.

[13] = test system: HIF-1α; experiment: HIF-1α protein levels after CRLX-101 alone or combined with antiangiogenic drugs in A2780 ovarian tumour model; type: in vivo, athymic nude mice; settings: for HIF-1Q % of Control mean + SD: CRLX-101 5 mg/kg QW × 2, n=3
[14] = test system: HIF-2α; experiment: Time course of HIF-2α inhibition in xenograft tumours (western blot); type: in vivo, nude mouse; settings: single dose; same time period
[15] = test system: SUM159 tumours; experiment: Tumour growth and tumour-initiating capacity in orthotopic SUM159 triple-negative breast cancer model; type: in vivo, mice; settings: pre-treatment for 2 weeks
Text: Such stimulation of CSCs could increase drug resistance and metastasis, and may be further enhanced by treatment with antiangiogenic drugs, which can increase tumour hypoxia by reducing blood flow to tumours. Inhibition of HIF-1α might therefore be beneficial to patients by reducing CSCs in tumours. […] Previously published studies have shown that Bevacizumab increases the CSC population mediated primarily by hypoxia induced up-regulation of HIF-1α. […] At the end of these 2 weeks, tumours were extracted and 100 tumour cells were implanted orthotopically into new, untreated mice.
Mice were dosed for two weeks at the dose level and frequency indicated in the legend. Tumour growth curves represent mean tumour volume and error bars represent standard deviation.

[16] = Mus musculus, A2780, read-out: HIF-1Q % of Control mean + SD

Compound: CC[C@@]1(O)C(=O)OCc2c1cc1n(c2=O)Cc2cc3ccccc3nc2-1 [CPT, 20(S)-Camptothecin]
- Inhibition of CA9 in tumours [1]: not

- IC50 ([5]; read-out: IC50 Absolute): 93.1 µM
- IC50 ([5]; read-out: IC50 relative): 11.6 µM
- IC50 ([7]; read-out: IC50 Absolute): 43.4 µM
- IC50 ([7]; read-out: IC50 relative): 3.03 µM
- IC50 ([8]; read-out: IC50 Absolute): 79.2 µM
- IC50 ([8]; read-out: IC50 relative): 9.26 µM
- IC50 [9]: 2.66 µM
Compound: O=C(c1cc(Cc2n[nH]c(=O)c3ccccc23)ccc1F)N1CCN(C(=O)C2CC2)CC1 [Olaparib, 4-[3-(4-cyclopropanecarbonyl-piperazine-1-carbonyl)-4-fluoro-benzyl]-2H-phthalazin-1-one]
- Response of the model to monotherapy [2]: relatively non-responsive
- IC50 ([3]; read-out: IC50 Absolute): 40.1 µM
- IC50 ([3]; read-out: IC50 relative): 5.71 µM
- IC50 ([4]; CAPAN-1, read-out: IC50 relative): 0.00546 µM
- IC50 ([4]; Capan-1 (schedule 2), Olaparib alone, read-out: IC50 Absolute): 488 µM
- IC50 [6]: 14.1 µM
- IC50 [10]: ~11.5 µM
- IC50 [11]: ~8.88 µM

Compound: CC(=O)O[C@H]1C(=O)[C@@]2(C)[C@H]([C@H](OC(=O)c3ccccc3)[C@]3(O)C[C@H](OC(=O)[C@H](O)[C@@H](NC(=O)c4ccccc4)c4ccccc4)C(C)=C1C3(C)C)[C@]1(OC(C)=O)CO[C@@H]1C[C@@H]2O [Paclitaxel]
- CR (complete regressions) ([12]; N=10): 1
- PR (partial regressions) ([12]; N=10): 0
- TFS (tumour-free survivors) ([12]; N=10): 1
- Median TTE ([12]; endpoint 1500 mm3, N=10): 42.8 days
- TGD ([12]; vs control group): 18%

Compound: Cc1ccc(Nc2nccc(N(C)c3ccc4c(C)n(C)nc4c3)n2)cc1S(N)(=O)=O [Pazopanib]
- HIF-1α protein level (% of control) at 150 mg/kg [13, 16]: 226 ± 127%

Compound: CNC(=O)c1cc(Oc2ccc(NC(=O)Nc3ccc(Cl)c(C(F)(F)F)c3)c(F)c2)ccn1 [Regorafenib]
- HIF-1α protein level (% of control) at 50 mg/kg [13, 16]: 171 ± 4%

Compound: CC[C@@]1(O)C(=O)OCc2c1cc1n(c2=O)Cc2cc3c(CN(C)C)c(O)ccc3nc2-1 [Topotecan]
- Inhibition of HIF-2α, in words [14]: unable to significantly inhibit

Compound: Aflibercept: antiangiogenic drug
- HIF-1Q % of Control mean + SD ([13]; Aflibercept study, Aflibercept 25 mg/kg Days 1, 4, 8): 235 ± 80%

Compound: Bevacizumab: antiangiogenic drug, anti-VEGF antibody
- Tumour-initiating capacity of 100 re-implanted tumour cells [15]: enhanced tumour-initiating capacity compared to control
- HIF-1Q % of Control mean + SD ([13]; Bevacizumab study, Bevacizumab 5 mg/kg Days 1, 4, 8): 127 ± 18%
